In PubChem BioAssay AID1918946 (Molecular Pharmacology Branch, DTP, NCI, 2023):

Test system: 885512-296-R-J2-PDC complex spheroid viability
Assay: Anticancer human tumor 885512-296-R-J2-PDC patient-derived breast carcinoma cell line growth inhibition
Conditions: for IC50: curve of first compound; for viability, T/C: stronger effect = lower value
How it was run: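 Multicellular complex spheroids of tumor cells with human endothelial cells (HUVEC) and mesenchymal stem cells; the LSD1 inhibitor iadademstat was combined with standard-of-care or investigational agents. Top concentration at or near clinical Cmax, half-log dilutions; final DMSO ≤0.25%.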
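Note: spheroids exposed to agents for 7 days before viability read.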

Question: Which results are given for `Cn1ncnc1C1c2n[nH]c(=O)c3cc(F)cc(c23)NC1c1ccc(F)cc1` (stereo not given) + NC1CCC(NC2CC2c2ccccc2)CC1?
Answer: IC50 (second compound 0.1 µM): 16 nM; IC50 (second compound 0.316 µM): 25 nM; IC50 (second compound 1 µM): 27.6 nM; IC50 (second compound 3.16 µM): 27.3 nM; IC50 (second compound 10 µM): 14.2 nM; viability, T/C (second compound 0.1 µM, first compound 0.000316 µM): 140%; viability, T/C (second compound 0.1 µM, first compound 0.001 µM): 105%; viability, T/C (second compound 0.1 µM, first compound 0.00316 µM): 77.6%; viability, T/C (second compound 0.1 µM, first compound 0.01 µM): 67.2%; viability, T/C (second compound 0.1 µM, first compound 0.0316 µM): 37.7%; viability, T/C (second compound 0.1 µM, first compound 0.1 µM): 10.2%; viability, T/C (second compound 0.316 µM, first compound 0.000316 µM): 122%; viability, T/C (second compound 0.316 µM, first compound 0.001 µM): 113%; viability, T/C (second compound 0.316 µM, first compound 0.00316 µM): 81.6%; viability, T/C (second compound 0.316 µM, first compound 0.01 µM): 79%; viability, T/C (second compound 0.316 µM, first compound 0.0316 µM): 44%; viability, T/C (second compound 0.316 µM, first compound 0.1 µM): 13.3%; viability, T/C (second compound 1 µM, first compound 0.000316 µM): 108%; viability, T/C (second compound 1 µM, first compound 0.001 µM): 105%; viability, T/C (second compound 1 µM, first compound 0.00316 µM): 89.6%; viability, T/C (second compound 1 µM, first compound 0.01 µM): 76.7%; viability, T/C (second compound 1 µM, first compound 0.0316 µM): 44.6%; viability, T/C (second compound 1 µM, first compound 0.1 µM): 28.5%; viability, T/C (second compound 3.16 µM, first compound 0.000316 µM): 106%; viability, T/C (second compound 3.16 µM, first compound 0.001 µM): 104%; viability, T/C (second compound 3.16 µM, first compound 0.00316 µM): 86.1%; viability, T/C (second compound 3.16 µM, first compound 0.01 µM): 75.2%; viability, T/C (second compound 3.16 µM, first compound 0.0316 µM): 44.5%; viability, T/C (second compound 3.16 µM, first compound 0.1 µM): 28.6%; viability, T/C (second compound 10 µM, first compound 0.000316 µM): 92%; viability, T/C (second compound 10 µM, first compound 0.001 µM): 85%; viability, T/C (second compound 10 µM, first compound 0.00316 µM): 72%; viability, T/C (second compound 10 µM, first compound 0.01 µM): 56.8%; viability, T/C (second compound 10 µM, first compound 0.0316 µM): 36%; viability, T/C (second compound 10 µM, first compound 0.1 µM): 18.6%
